The values below come from patent US8530636B2, “Method for regulating protein function in cells in vivo using synthetic small molecules” (priority 2008, dated 2013).

“Also recorded” adds a separate entry of the source. Some results are limits rather than exact numbers.

One series concerns the target T1, FKBP L106P-YFP fusion (Homo sapiens, UniProt P62942, F37V).
T1 construct: expressed in transfected cells
The series can be described thus: Shield1 dose-response of FKBP-YFP fluorescence, flow cytometry. In kind it is cell-based. Here is the method: (§1) Experiments were performed in triplicate.

The target in series [1] is T2, FKBP variant V24A-YFP fusion protein (Homo sapiens, UniProt P62942, F37V/V25A).
T2 construct: expressed in transfected cells; host or cells: NIH3T3 (retroviral transduction)
The description is as above. It counts as cell-based. Conditions: NIH3T3 cells stably expressing V24A FKBP-YFP. Here is the method:
as §1

A further series addresses T3, L106P-tsLuc (Homo sapiens, UniProt P62942, F37V).
T3 construct: expressed in transfected cells
The series can be described thus: In vivo bioluminescence imaging of HCT116 L106P-luciferase xenografts. On the set-up: species or system SCID mice.

Series [2] addresses T4, L-L106P-IL-2 (Homo sapiens, UniProt P60568).
T4 construct: IL-2 signal peptide (L), human IL-2 (N); expressed in transfected cells; in culture (A11) or as xenograft in CD1 nu-/nu- mice (A13)
The series can be described thus: IL-2 secreted by HCT116 L-L106P-IL-2 cells, ELISA of culture media. It counts as cell-based. To be noted: dose-dependent on Shield1 in the media. Here is the method: (§2) FIGS. 22A-22D show graphs relating to the conditional stabilization of a secreted immunomodulatory protein leads. […] Data are represented as the average IL-2 concentration ±SEM (n=3). […] Tumor volume was determined by caliper measurement and monitored over time. Data are represented as the average tumor volume ±SEM (n=5).
Interleukin-2 (IL-2) is a cytokine that is instrumental in immune response, inducing the differentiation and proliferation of a variety of lymphocyte populations (Gaffen, S. L. and Liu, K. D. (2004) Cytokine 28:109-23). Recombinant IL-2 is approved for clinical treatment of renal cancers and is used in a variety of other cancer therapies. Polynucleotides encoding the L106P stability-affecting protein were inserted between polynucleotides of the IL-2 gene that encode the signal peptide and the remainder of the IL-2 protein to produce the chimeric gene, L-L106P-IL-2, which was stably introduced into HCT116 cells. […]
Thermostable luciferase or the human IL-2 gene were cloned into pBMN L106P iBlasticidin and used to generate amphotropic retrovirus (Banaszynski, L. A. et al. (2006) Cell. 126:995-1004). […] Cells grown in 96-well plates (2×10^4 cells/well) were treated with Shield1 as indicated and either bioluminescence measured using an IVIS 50 (Xenogen Product from Caliper Life Sciences) following luciferin addition (300 μg/mL), or media collected for ELISA.
For orientation: In an ELISA, binding on a coated surface is turned into a signal by an enzyme label.

Series [3] deals with HCT116 L-L106P-IL-2 tumors. It counts as in vivo. Here is the method: FIGS. 22A-22D show graphs relating to the conditional stabilization of a secreted immunomodulatory protein leads. […]. Data are represented as the average IL-2 concentration ±SEM (n=3). […]. Tumor volume was determined by caliper measurement and monitored over time. Data are represented as the average tumor volume ±SEM (n=5).
[…]. Tumors in the untreated control animals continued to increase in size over the course of the experiment. […].
(§3) SCID or CD1 nu-/nu-mice (Charles River Co.) received subcutaneous dorsal injections of ˜1×10^7 cells, and tumors were allowed to establish as indicated. Animals were given an intraperitoneal injection of luciferin (225 mg/kg), anesthetized (2% isoflurane), and placed on the warmed stage (37° C.) of an IVIS 100 or IVIS 200 (Xenogen Product from Caliper Life Sciences) for imaging. Light produced was measured as photons/sec for designated regions of interest as described. Tumor volumes were also determined by caliper measurement, and mice were sacrificed when tumors reached 1.44 cm^3 for survival assays. In some experiments, serum samples were collected by retino-orbital bleedings and tumors collected post-mortem and homogenized for ELISA assay of cytokines. All experiments were run with institutional IACUC approval.

The target of series [4] is T4, L-L106P-IL-2. Briefly: IL-2 in tumor and serum of xenografted mice, ELISA. In kind it is in vivo, CD1 nu-/nu-mice. Conditions: 48 hr after start. As for the experimental part: as §2
Analysis of IL-2 levels within the tumors of treated and untreated mice confirmed dose-dependent production of IL-2 at the tumor site in mice treated at 5 or 10 mg/kg Shield1 (FIG. 22C; p=0.032). […] A dose of 5 mg/kg Shield1 was sufficient to produce the same robust anti-tumor response as 10 mg/kg Shield1, while avoiding the increase in IL-2 serum levels associated with the higher ligand dose.
as §3

A further series concerns vvDD. In kind it is cell-based, vaccinia virus.
The conditions of series [5]: mouse, in vivo.
The next series deals with FKBP F36V variant (Homo sapiens, UniProt P62942, F37V). Conditions: Clackson et al. 1998; cited from earlier work.
For another series, the system named is HCT116 tumors. Briefly: vvDD L-L106P-IL-2 in mice bearing HCT116 tumors.
The target in series [6] is FKBP-YFP fusion proteins (Homo sapiens, UniProt P62942, F37V). Briefly: Kinetics of FKBP-YFP fluorescence upon addition of Shield1. To be noted: L106P-YFP, various concentrations of Shield1.
Series [7] concerns FKBP-YFP fusion proteins. The series is described as above.
The conditions of series [8]: cited from earlier work.

T4 sequence (P60568 with tags, fused parts or gaps): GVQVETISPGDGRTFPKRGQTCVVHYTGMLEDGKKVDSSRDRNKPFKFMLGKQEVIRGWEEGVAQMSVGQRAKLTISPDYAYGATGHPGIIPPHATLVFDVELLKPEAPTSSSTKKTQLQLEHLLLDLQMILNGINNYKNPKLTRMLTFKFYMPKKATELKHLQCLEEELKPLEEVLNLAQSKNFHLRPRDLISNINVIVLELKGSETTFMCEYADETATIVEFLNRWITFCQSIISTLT
T3 sequence (P62942 with tags, fused parts or gaps F37V): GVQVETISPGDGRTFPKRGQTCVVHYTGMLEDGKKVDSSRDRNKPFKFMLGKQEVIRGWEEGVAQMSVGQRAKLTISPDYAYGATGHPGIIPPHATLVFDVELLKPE
T1 sequence (P62942 with tags, fused parts or gaps F37V): as above
Chain of FKBP F36V variant (P62942 2-108 F37V limits assumed): as the sequence (P62942 with tags, fused parts or gaps F37V) above, with P106L counted along it
Chain of FKBP-YFP fusion proteins (Homo sapiens, UniProt P62942, F37V) (P62942 with tags, fused parts or gaps F37V): as the sequence (P62942 with tags, fused parts or gaps F37V) above
T2 sequence (P62942 2-108 V25A/F37V): as the sequence (P62942 with tags, fused parts or gaps F37V) above, with V24A, P106L counted along it

The EC50 is the midpoint of the concentration-response curve. For “1-[2-(3,4,5-trimethoxy-phenyl)-butyryl]-piperazine-2-carboxylic acid 3-(3,4-dimethoxy-phenyl)-1-[3-(2-morpholin-4-yl-ethoxy)-phenyl]-propyl ester [Shield1]”, at FKBP L106P-YFP fusion (1 μM Shield1), the “Stabilization of FKBP L106P-YFP fusion protein” value is “fully stabilized”. Moreover, the EC50 on FKBP L106P-YFP fusion (NIH3T3 cells stably expressing L106P-YFP, read-out: EC50 of Shield1 to stabilize the YFP fusion protein) was approximately 100 nM; in series [1] it was approximately 5 nM. Also, the “Time for bioluminescent signals to return to background” value on L106P-tsLuc (10 mg/kg ip) is not above 48 h. Besides, at L106P-tsLuc (10 mg/kg ip, FIG. 21B), the “Increase in bioluminescent signal in the presence compared to the absence of Shield1” value is approximately 10 fold. Further, the “Time of maximum expression levels following treatment” value at L106P-tsLuc (10 mg/kg ip, L106P-tsLuc, FIG. 21A) was found to be 12 h. Further, the “Bioluminescence under periodic treatment” value on L106P-tsLuc (10 mg/kg once every 48 hours) is given as “maintain increased bioluminescence levels over the course of several weeks”. For the same substance, the “Bioluminescence with increasing doses” value at L106P-tsLuc (3, 6, or 10 mg/kg) is reported as “increasing bioluminescence levels”. In addition, at L106P-tsLuc (FIG. 7A, luciferase fused to FKBP F36V/L106P), the “Time of peak luminescence following a single injection of ligand” value is recorded as “about 10 hours”. For the same substance, on L-L106P-IL-2 [2], the “Dynamic range of secreted IL-2” value is listed as “approximately 25 fold”. For the same substance, in series [3] (cells pretreated with Shield1, then 10 mg/kg every 48 hours), the Tumor establishment result is recorded as “Tumors failed to establish”. Also, the “Tumor burden relative to untreated animals” value in series [3] (day 16, all Shield1-treated groups) is “significantly reduced tumor burden”. Further, the Tumor size entry in series [3] (i.p. 5 or 10 mg/kg every 48 hours from five days after implantation) is reported as “tumor regression”. Moreover, the “IL-2 per gram tumor tissue” value on L-L106P-IL-2 [4] (5 mg/kg) is on record as “more IL-2 than tumors from untreated mice”; on L-L106P-IL-2 [4] (10 mg/kg), “significantly higher levels of IL-2 than tumors from mice treated at 5 mg/kg”. Moreover, the “Serum IL-2 levels” value on L-L106P-IL-2 [4] (5 mg/kg) is “did not produce any increase in serum IL-2 levels”; on L-L106P-IL-2 [4] (10 mg/kg), “significantly higher levels of serum IL-2; also recorded: significantly elevated levels”. Further, the “Replication of the virus” value in the series on vvDD was “did not affect the replication of the virus”. In series [5], the “Feeding behavior, body weight, overall activity” value is recorded as “did not appear to affect feeding behavior, body weight, or overall activity”. In addition, the “Binding tighter to the F36V variant compared to wild-type FKBP” value at FKBP F36V variant is on record as “about 1,000 fold”. Further, the “Treg infiltration into tumor” value in the series on HCT116 tumors (delayed clearance of virus) was “increase in Treg infiltration”. For the same substance, in the series on HCT116 tumors (no Shield1 during the first 72 hours after vvDD L-L106P-IL-2), the “Survival of treated animals” value was “greater percent survival of the treated animals”. Further, on FKBP-YFP fusion proteins [6], the “Time until YFP expression is observed” value is reported as not above 15 min. The “Time of maximum fluorescence after addition of Shield1” value with FKBP-YFP fusion proteins [7] (NIH3T3 cells, FKBP-YFP variants) is 24 h. Further, in the series with FKBP-YFP fusion proteins [7] (after the maximum at 24 hours), the “Time fluorescence is stably maintained without further addition of Shield1” value is not below 48 h.

On to C20-methallylrapamycin [MaRap], for which the “Pharmacokinetic properties in vivo” value in series [8] is “poor pharmacokinetic properties in vivo”.
